Earlier results as cited in US7455864B2, “Melatonin-based composition for improved sleep” (Iomedix Development International Srl, priority 2007, dated 2008).

What was measured:
humans [1] = settings: melatonin supplementation in humans
humans [2] = settings: melatonin supplementation in humans; remark: listed apart in the source
humans [3] = settings: transdermal absorption

SMILES | treatment of jet lag (humans [1]) | onset of sleep (humans [2]) | blood pressure (humans [3]) | skin temperature (humans [3])
COc1ccc2[nH]cc(CCNC(C)=O)c2c1 [Melatonin] | efficacious for treating jet lag | hastening the onset of sleep |  | 
C=CC(C)(O)CCC=C(C)C (stereo not shown) [linalool] |  |  | reduce | reduce
